Assays:
[1] = Pharmacokinetic profile after oral gavage in mice; type: in vivo; conditions: male, CD1, mouse, single PO 100 mg/kg, plasma over 24 hours
Experimental: The pharmacokinetic profile of compound I-1 was determined after oral gavage of 100 mg/kg in male CD1 mice (n=3), using freshly prepared formulations. Approximately 0.025 mL of blood were collected from the dorsal metatarsal vein at 15 min, 30 min, and 1, 2, 4, 6, 8, and 24 hr post dosing. Plasma concentrations of the drug were analyzed by LC/MS/MS method.
Following a single PO (oral) injection in mice at 100 mg/kg, the concentration of compound I-1 was measured in the plasma over 24 hours. The half life was approximately 6 hours.

A498 = experiment: Growth inhibition of cancer cell lines; type: cell-based; conditions: Homo sapiens; A498, kidney carcinoma; 50% inhibition of growth
Excerpt: (§1) We tested the ability of compound I-1 to inhibit the growth of 12 additional cell lines, derived from a variety of different types of human cancer.

A549 = experiment: Growth inhibition of cancer cell lines; type: cell-based; conditions: Homo sapiens; A549, lung adenocarcinoma; 50% inhibition of growth
Excerpt: as §1

CFPAC-1 = experiment: Growth inhibition of cancer cell lines; type: cell-based; conditions: Homo sapiens; CFPAC-1, pancreatic adenocarcinoma; 50% inhibition of growth
Excerpt: as §1

Colo205 = experiment: Growth inhibition of cancer cell lines; type: cell-based; conditions: Homo sapiens, COLO 205; Colo205, Dukes' type D, colorectal adenocarcinoma; 50% inhibition of growth
Excerpt: as §1

DLD-1 = experiment: Growth inhibition of cancer cell lines; type: cell-based; conditions: Homo sapiens; DLD-1, Dukes' type C, colorectal adenocarcinoma; 50% inhibition of growth
Excerpt: as §1

GIST T1 = experiment: Growth inhibition of cancer cell lines; type: cell-based; conditions: Homo sapiens, GISTT1; GIST T1, gastrointestinal stromal tumor; 50% inhibition of growth
Excerpt: as §1

IGROV-1 = experiment: Growth inhibition of cancer cell lines; type: cell-based; conditions: Homo sapiens; IGROV-1, ovarian adenocarcinoma; 50% inhibition of growth
Excerpt: as §1

MCF-7 = experiment: Growth inhibition of cancer cell lines; type: cell-based; conditions: Homo sapiens, MCF7; MCF-7, breast cancer; 50% inhibition of growth
Excerpt: as §1

MiaPaca-2 = experiment: Growth inhibition of cancer cell lines; type: cell-based; conditions: Homo sapiens, MIA PaCa-2; MiaPaca-2, pancreatic carcinoma; 50% inhibition of growth
Excerpt: as §1

NCI-H69 = experiment: Growth inhibition of cancer cell lines; type: cell-based; conditions: Homo sapiens; NCI-H69, small cell lung cancer; 50% inhibition of growth
Excerpt: as §1

PC-3 = experiment: Growth inhibition of cancer cell lines; type: cell-based; conditions: Homo sapiens; PC-3, prostate adenocarcinoma; 50% inhibition of growth
Excerpt: as §1

RL = experiment: Growth inhibition of cancer cell lines; type: cell-based; conditions: Homo sapiens, non-Hodgkin's lymphoma, 50% inhibition of growth
Excerpt: as §1

UACC-62 = experiment: Growth inhibition of cancer cell lines; type: cell-based; conditions: Homo sapiens; UACC-62, melanoma; 50% inhibition of growth
Excerpt: as §1

HepG2 = experiment: Growth inhibition of additional cancer cell lines; type: cell-based; conditions: Homo sapiens; HepG2, Liver; 50% inhibition of growth
Excerpt: (§2) We tested the ability of compound I-1 to inhibit the growth of 11 additional cell lines, derived from a variety of different types of human cancer.

MM.1R = experiment: Growth inhibition of additional cancer cell lines; type: cell-based; conditions: Homo sapiens, Hematopoietic-B-cell myeloma, 50% inhibition of growth
Excerpt: as §2

NALM-6 = experiment: Growth inhibition of additional cancer cell lines; type: cell-based; conditions: Homo sapiens; NALM-6, Heme (B-cell precursor leukemia, ALL); 50% inhibition of growth
Excerpt: as §2

NCI-H520 = experiment: Growth inhibition of additional cancer cell lines; type: cell-based; conditions: Homo sapiens; NCI-H520, NSCLC; 50% inhibition of growth
Excerpt: as §2

RL95-2 = experiment: Growth inhibition of additional cancer cell lines; type: cell-based; conditions: Homo sapiens; RL95-2, Uterus/endometrium; 50% inhibition of growth
Excerpt: as §2

Raji = experiment: Growth inhibition of additional cancer cell lines; type: cell-based; conditions: Homo sapiens, Heme (Burkitt's lymphoma), 50% inhibition of growth
Excerpt: as §2

Ramos (RA 1) = experiment: Growth inhibition of additional cancer cell lines; type: cell-based; conditions: Homo sapiens, Hematopoietic-Burkitt's B-cell lymphoma, 50% inhibition of growth
Excerpt: as §2

SR = experiment: Growth inhibition of additional cancer cell lines; type: cell-based; conditions: Homo sapiens, Heme (large cell immunoblastic lymphoma-unknown B or T cell origin), 50% inhibition of growth
Excerpt: as §2

SU-DHL-10 = experiment: Growth inhibition of additional cancer cell lines; type: cell-based; conditions: Homo sapiens, SU-DHL10; SU-DHL-10, Hematopoietic-large B-cell lymphoma; 50% inhibition of growth
Excerpt: as §2

SW620 = experiment: Growth inhibition of additional cancer cell lines; type: cell-based; conditions: Homo sapiens, SW-620; SW620, Colon; 50% inhibition of growth
Excerpt: as §2

Thp1 = experiment: Growth inhibition of additional cancer cell lines; type: cell-based; conditions: Homo sapiens, THP-1; Thp1, Heme (acute monocytic leukemia); 50% inhibition of growth
Excerpt: as §2

## CCC(=O)N1CCc2cc(-c3ccc(C(=O)NCc4cccnc4)cc3)ccc21 [Compound I-1]
[1]
  half-life: ~6 h
A498
  IC50: > 10 µM
A549
  IC50: > 10 µM
CFPAC-1
  IC50: 8.24 µM
Colo205
  IC50: > 10 µM
DLD-1
  IC50: > 10 µM
GIST T1
  IC50: 0.98 µM
IGROV-1
  IC50: 4.54 µM
MCF-7
  IC50: 6 µM
MiaPaca-2
  IC50: 3.38 µM
NCI-H69
  IC50: 1.5 µM
PC-3
  IC50: 5.52 µM
RL
  IC50: 0.13 µM
UACC-62
  IC50: > 10 µM
HepG2
  IC50: 4.02 µM
MM.1R
  IC50: 5.44 µM
NALM-6
  IC50: 0.675 µM
NCI-H520
  IC50: 3.66 µM
RL95-2
  IC50: 2.5 µM
Raji
  IC50: 2.52 µM
Ramos (RA 1)
  IC50: 3.41 µM
SR
  IC50: 0.489 µM
SU-DHL-10
  IC50: 2.61 µM
SW620
  IC50: 2.79 µM
Thp1
  IC50: 5.17 µM

— patent publication US12522587B2, “Cancer treatments targeting cancer stem cells” (Remedy Plan, Inc., priority 2018, dated 2026)
